From patent publication US11040028B2, “Penicinotam derivative, preparation method and use thereof” (OCEAN UNIVERSITY OF CHINA, priority 2017, dated 2021)

system: BHK-21 cells; test: Anti-fibrosis activity test: inhibition of BHK-21 cell proliferation (CCK-8); type: cell-based; details: Mesocricetus auratus, BHK-21, 48 h, CCK-8, 48 hours after administration
Procedure, shortened: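 Read-out: CCK-8 absorbance at 450 nm after 2 h, giving proliferation inhibition (1−Ai/Ao)×100% versus blank control, from which IC50 was derived. Cells had been treated with compounds for 48 h after 24 h adherence at 37° C. Pirfenidone served as positive control.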

Structure (SMILES)	IC50 [mM]
O=C1c2c(n(CCCN3CCOCC3)c3ccccc3c2=O)-c2cccn21 [Compound 663a, 4-(3-Morpholinopropyl)-9H-pyrrolizino[1,2-b]quinoline-9,10(4H)-dione]	< 0.05
Cn1c2c(c(=O)c3cc(F)ccc31)C(=O)n1cccc1-2 [Compound 157a, 7-Fluoro-4-methyl-9H-pyrrolizino[1,2-b]quinoline-9,10(4H)-dione]	5 to 20
COCCOc1c2c(nc3ccccc13)-c1cccn1C2=O [Compound 652b, 9-(2-methoxyethoxy)-10H-pyrrolizino[1,2-b]quinolin-10-one]	0.05 to 5
Cc1cccc(Cn2c3c(c(=O)c4ccccc42)C(=O)n2cccc2-3)c1 [Compound 609a, 4-(3-Methylbenzyl)-9H-pyrrolizino[1,2-b]quinoline-9,10(4H)-dione]	0.05 to 5
O=C1c2c(n(C(=O)c3ccco3)c3ccccc3c2=O)-c2cccn21 [Compound 95a, 4-(Furan-2-carbonyl)-9H-pyrrolizino[1,2-b]quinoline-9,10(4H)-dione]	0.05 to 5

system: human lung fibroblasts HFL1; test: Anti-fibrosis activity test: inhibition of proliferation of human lung fibroblasts HFL1 (CCK-8); type: cell-based; details: Homo sapiens, HFL1, 48 h, human lung fibroblasts HFL1, CCK-8, 48 hours
Procedure, shortened: (§1)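 Exponentially growing cells, 2×10^4 cells/mL, attached 24 h. Dosed 48 h across concentrations (n=3). CCK-8 2 h → A450; IR vs blank; IC50.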

Structure (SMILES)	IC50 [mM]
O=C1c2c(n(CCCN3CCOCC3)c3ccccc3c2=O)-c2cccn21 [Compound 663a, 4-(3-Morpholinopropyl)-9H-pyrrolizino[1,2-b]quinoline-9,10(4H)-dione]	0.05 to 5
Cn1c2c(c(=O)c3cc(F)ccc31)C(=O)n1cccc1-2 [Compound 157a, 7-Fluoro-4-methyl-9H-pyrrolizino[1,2-b]quinoline-9,10(4H)-dione]	0.05 to 5
COCCOc1c2c(nc3ccccc13)-c1cccn1C2=O [Compound 652b, 9-(2-methoxyethoxy)-10H-pyrrolizino[1,2-b]quinolin-10-one]	0.05 to 5
Cc1cccc(Cn2c3c(c(=O)c4ccccc42)C(=O)n2cccc2-3)c1 [Compound 609a, 4-(3-Methylbenzyl)-9H-pyrrolizino[1,2-b]quinoline-9,10(4H)-dione]	0.05 to 5
O=C1c2c(n(C(=O)c3ccco3)c3ccccc3c2=O)-c2cccn21 [Compound 95a, 4-(Furan-2-carbonyl)-9H-pyrrolizino[1,2-b]quinoline-9,10(4H)-dione]	0.05 to 5

system: human hepatic stellate cells LX-2; test: Anti-fibrosis activity test: inhibition of proliferation of human hepatic stellate cells LX-2 (CCK-8); type: cell-based; details: Homo sapiens, 48 h, human hepatic stellate cells LX-2, CCK-8, 48 hours
Procedure, shortened: as §1

Structure (SMILES)	IC50 [mM]
O=C1c2c(n(CCCN3CCOCC3)c3ccccc3c2=O)-c2cccn21 [Compound 663a, 4-(3-Morpholinopropyl)-9H-pyrrolizino[1,2-b]quinoline-9,10(4H)-dione]	0.05 to 5
Cn1c2c(c(=O)c3cc(F)ccc31)C(=O)n1cccc1-2 [Compound 157a, 7-Fluoro-4-methyl-9H-pyrrolizino[1,2-b]quinoline-9,10(4H)-dione]	0.05 to 5
COCCOc1c2c(nc3ccccc13)-c1cccn1C2=O [Compound 652b, 9-(2-methoxyethoxy)-10H-pyrrolizino[1,2-b]quinolin-10-one]	0.05 to 5
Cc1cccc(Cn2c3c(c(=O)c4ccccc42)C(=O)n2cccc2-3)c1 [Compound 609a, 4-(3-Methylbenzyl)-9H-pyrrolizino[1,2-b]quinoline-9,10(4H)-dione]	0.05 to 5
O=C1c2c(n(C(=O)c3ccco3)c3ccccc3c2=O)-c2cccn21 [Compound 95a, 4-(Furan-2-carbonyl)-9H-pyrrolizino[1,2-b]quinoline-9,10(4H)-dione]	< 0.05

system: human fibrosarcoma cells HT-1080; test: Anti-fibrosis activity test: inhibition of proliferation of human fibrosarcoma cells HT-1080 (CCK-8); type: cell-based; details: Homo sapiens, HT-1080, 48 h, human fibrosarcoma cells HT-1080, CCK-8, 48 hours
Procedure, shortened: as §1

Structure (SMILES)	IC50 [mM]
O=C1c2c(n(CCCN3CCOCC3)c3ccccc3c2=O)-c2cccn21 [Compound 663a, 4-(3-Morpholinopropyl)-9H-pyrrolizino[1,2-b]quinoline-9,10(4H)-dione]	0.05 to 5
Cn1c2c(c(=O)c3cc(F)ccc31)C(=O)n1cccc1-2 [Compound 157a, 7-Fluoro-4-methyl-9H-pyrrolizino[1,2-b]quinoline-9,10(4H)-dione]	0.05 to 5
COCCOc1c2c(nc3ccccc13)-c1cccn1C2=O [Compound 652b, 9-(2-methoxyethoxy)-10H-pyrrolizino[1,2-b]quinolin-10-one]	0.05 to 5
Cc1cccc(Cn2c3c(c(=O)c4ccccc42)C(=O)n2cccc2-3)c1 [Compound 609a, 4-(3-Methylbenzyl)-9H-pyrrolizino[1,2-b]quinoline-9,10(4H)-dione]	0.05 to 5
O=C1c2c(n(C(=O)c3ccco3)c3ccccc3c2=O)-c2cccn21 [Compound 95a, 4-(Furan-2-carbonyl)-9H-pyrrolizino[1,2-b]quinoline-9,10(4H)-dione]	< 0.05

system: human dermal fibroblasts CCC-ESF-1; test: Anti-fibrosis activity test: inhibition of proliferation of human dermal fibroblasts CCC-ESF-1 (CCK-8); type: cell-based; details: Fibroblast; human dermal fibroblasts CCC-ESF-1, CCK-8, 48 hours
Procedure, shortened: as §1

Structure (SMILES)	IC50 [mM]
O=C1c2c(n(CCCN3CCOCC3)c3ccccc3c2=O)-c2cccn21 [Compound 663a, 4-(3-Morpholinopropyl)-9H-pyrrolizino[1,2-b]quinoline-9,10(4H)-dione]	0.05 to 5
Cn1c2c(c(=O)c3cc(F)ccc31)C(=O)n1cccc1-2 [Compound 157a, 7-Fluoro-4-methyl-9H-pyrrolizino[1,2-b]quinoline-9,10(4H)-dione]	0.05 to 5
COCCOc1c2c(nc3ccccc13)-c1cccn1C2=O [Compound 652b, 9-(2-methoxyethoxy)-10H-pyrrolizino[1,2-b]quinolin-10-one]	0.05 to 5
Cc1cccc(Cn2c3c(c(=O)c4ccccc42)C(=O)n2cccc2-3)c1 [Compound 609a, 4-(3-Methylbenzyl)-9H-pyrrolizino[1,2-b]quinoline-9,10(4H)-dione]	0.05 to 5
O=C1c2c(n(C(=O)c3ccco3)c3ccccc3c2=O)-c2cccn21 [Compound 95a, 4-(Furan-2-carbonyl)-9H-pyrrolizino[1,2-b]quinoline-9,10(4H)-dione]	0.05 to 5

system: human embryonic lung fibroblast IMR-90; test: Anti-fibrosis activity test: inhibition of proliferation of human embryonic lung fibroblast IMR-90 (CCK-8); type: cell-based; details: human embryonic lung fibroblast IMR-90, CCK-8, 48 hours
Procedure, shortened: as §1

Structure (SMILES)	IC50 [mM]
O=C1c2c(n(CCCN3CCOCC3)c3ccccc3c2=O)-c2cccn21 [Compound 663a, 4-(3-Morpholinopropyl)-9H-pyrrolizino[1,2-b]quinoline-9,10(4H)-dione]	0.05 to 5
Cn1c2c(c(=O)c3cc(F)ccc31)C(=O)n1cccc1-2 [Compound 157a, 7-Fluoro-4-methyl-9H-pyrrolizino[1,2-b]quinoline-9,10(4H)-dione]	0.05 to 5
COCCOc1c2c(nc3ccccc13)-c1cccn1C2=O [Compound 652b, 9-(2-methoxyethoxy)-10H-pyrrolizino[1,2-b]quinolin-10-one]	0.05 to 5
Cc1cccc(Cn2c3c(c(=O)c4ccccc42)C(=O)n2cccc2-3)c1 [Compound 609a, 4-(3-Methylbenzyl)-9H-pyrrolizino[1,2-b]quinoline-9,10(4H)-dione]	0.05 to 5
O=C1c2c(n(C(=O)c3ccco3)c3ccccc3c2=O)-c2cccn21 [Compound 95a, 4-(Furan-2-carbonyl)-9H-pyrrolizino[1,2-b]quinoline-9,10(4H)-dione]	< 0.05

system: cardiac fibroblast RAT-iCell-C002; test: Anti-fibrosis activity test: inhibition of proliferation of cardiac fibroblast RAT-iCell-C002 (CCK-8); type: cell-based; details: Cardiac fibroblast, 48 h, cardiac fibroblast RAT-iCell-C002, CCK-8, 48 hours
Procedure, shortened: as §1

Structure (SMILES)	IC50 [mM]
O=C1c2c(n(CCCN3CCOCC3)c3ccccc3c2=O)-c2cccn21 [Compound 663a, 4-(3-Morpholinopropyl)-9H-pyrrolizino[1,2-b]quinoline-9,10(4H)-dione]	0.05 to 5
Cn1c2c(c(=O)c3cc(F)ccc31)C(=O)n1cccc1-2 [Compound 157a, 7-Fluoro-4-methyl-9H-pyrrolizino[1,2-b]quinoline-9,10(4H)-dione]	0.05 to 5
COCCOc1c2c(nc3ccccc13)-c1cccn1C2=O [Compound 652b, 9-(2-methoxyethoxy)-10H-pyrrolizino[1,2-b]quinolin-10-one]	0.05 to 5
Cc1cccc(Cn2c3c(c(=O)c4ccccc42)C(=O)n2cccc2-3)c1 [Compound 609a, 4-(3-Methylbenzyl)-9H-pyrrolizino[1,2-b]quinoline-9,10(4H)-dione]	0.05 to 5
O=C1c2c(n(C(=O)c3ccco3)c3ccccc3c2=O)-c2cccn21 [Compound 95a, 4-(Furan-2-carbonyl)-9H-pyrrolizino[1,2-b]quinoline-9,10(4H)-dione]	0.05 to 5

system: NF-κB; test: Immunological activity test: inhibition of NF-κB activity; type: cell-based; details: initial concentration of 30 μM; a/b isomers given as first/second symbol; read-out: IC50 (μM), inhibitory activity against NF-κB
Procedure, shortened: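 NF-κB inhibition was tested at an initial 30 μM compound concentration, with parthenolide as positive control, and IC50 values were determined from follow-up analysis.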

Structure (SMILES)	IC50 [µM]
O=C1c2c(n(CCCN3CCOCC3)c3ccccc3c2=O)-c2cccn21 [Compound 663a, 4-(3-Morpholinopropyl)-9H-pyrrolizino[1,2-b]quinoline-9,10(4H)-dione]	1 to 10
Cn1c2c(c(=O)c3cc(F)ccc31)C(=O)n1cccc1-2 [Compound 157a, 7-Fluoro-4-methyl-9H-pyrrolizino[1,2-b]quinoline-9,10(4H)-dione]	10 to 50
COCCOc1c2c(nc3ccccc13)-c1cccn1C2=O [Compound 652b, 9-(2-methoxyethoxy)-10H-pyrrolizino[1,2-b]quinolin-10-one]	1 to 10
Cc1cccc(Cn2c3c(c(=O)c4ccccc42)C(=O)n2cccc2-3)c1 [Compound 609a, 4-(3-Methylbenzyl)-9H-pyrrolizino[1,2-b]quinoline-9,10(4H)-dione]	1 to 10
O=C1c2c(n(C(=O)c3ccco3)c3ccccc3c2=O)-c2cccn21 [Compound 95a, 4-(Furan-2-carbonyl)-9H-pyrrolizino[1,2-b]quinoline-9,10(4H)-dione]	1 to 10

system: mouse macrophages (RAW264.7); test: Lipopolysaccharide-induced NO secretion in macrophages (Griess); type: cell-based; details: Mus musculus, RAW264.7, 24 h, RAW264.7, LPS 1 μg/ml, a/b isomers given as first/second symbol, read-out: IC50 (μM), inhibition of lipopolysaccharide-induced NO secretion in macrophages
Procedure, shortened: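 RAW264.7 cells in DMEM with 10% FBS were treated with test compounds at several concentrations, then stimulated with LPS (1 μg/ml) for 24 hours. Nitrite in the supernatant was measured by Griess reaction at 548 nm, and percent inhibition was calculated against blank-medium controls.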

Structure (SMILES)	IC50 [µM]
O=C1c2c(n(CCCN3CCOCC3)c3ccccc3c2=O)-c2cccn21 [Compound 663a, 4-(3-Morpholinopropyl)-9H-pyrrolizino[1,2-b]quinoline-9,10(4H)-dione]	0.1 to 1
Cn1c2c(c(=O)c3cc(F)ccc31)C(=O)n1cccc1-2 [Compound 157a, 7-Fluoro-4-methyl-9H-pyrrolizino[1,2-b]quinoline-9,10(4H)-dione]	0.1 to 1
COCCOc1c2c(nc3ccccc13)-c1cccn1C2=O [Compound 652b, 9-(2-methoxyethoxy)-10H-pyrrolizino[1,2-b]quinolin-10-one]	1 to 10
Cc1cccc(Cn2c3c(c(=O)c4ccccc42)C(=O)n2cccc2-3)c1 [Compound 609a, 4-(3-Methylbenzyl)-9H-pyrrolizino[1,2-b]quinoline-9,10(4H)-dione]	0.1 to 1
O=C1c2c(n(C(=O)c3ccco3)c3ccccc3c2=O)-c2cccn21 [Compound 95a, 4-(Furan-2-carbonyl)-9H-pyrrolizino[1,2-b]quinoline-9,10(4H)-dione]	1 to 10
